Experimental data from patent US20230150970A1, “AMINOPYRIMIDINE DERIVATIVES AND THEIR USE AS ARYL HYDROCARBON RECEPTOR MODULATORS” (DONG-A ST CO., LTD., priority 2020, published 2023).
pEC50, pIC50: −log10 of the molar value. Where two headings read alike, the source gives them in different places.

Assays:
AhR [1] = molecular target: T1, AhR (Homo sapiens, UniProt P35869)
T1 sequence (P35869 11-848): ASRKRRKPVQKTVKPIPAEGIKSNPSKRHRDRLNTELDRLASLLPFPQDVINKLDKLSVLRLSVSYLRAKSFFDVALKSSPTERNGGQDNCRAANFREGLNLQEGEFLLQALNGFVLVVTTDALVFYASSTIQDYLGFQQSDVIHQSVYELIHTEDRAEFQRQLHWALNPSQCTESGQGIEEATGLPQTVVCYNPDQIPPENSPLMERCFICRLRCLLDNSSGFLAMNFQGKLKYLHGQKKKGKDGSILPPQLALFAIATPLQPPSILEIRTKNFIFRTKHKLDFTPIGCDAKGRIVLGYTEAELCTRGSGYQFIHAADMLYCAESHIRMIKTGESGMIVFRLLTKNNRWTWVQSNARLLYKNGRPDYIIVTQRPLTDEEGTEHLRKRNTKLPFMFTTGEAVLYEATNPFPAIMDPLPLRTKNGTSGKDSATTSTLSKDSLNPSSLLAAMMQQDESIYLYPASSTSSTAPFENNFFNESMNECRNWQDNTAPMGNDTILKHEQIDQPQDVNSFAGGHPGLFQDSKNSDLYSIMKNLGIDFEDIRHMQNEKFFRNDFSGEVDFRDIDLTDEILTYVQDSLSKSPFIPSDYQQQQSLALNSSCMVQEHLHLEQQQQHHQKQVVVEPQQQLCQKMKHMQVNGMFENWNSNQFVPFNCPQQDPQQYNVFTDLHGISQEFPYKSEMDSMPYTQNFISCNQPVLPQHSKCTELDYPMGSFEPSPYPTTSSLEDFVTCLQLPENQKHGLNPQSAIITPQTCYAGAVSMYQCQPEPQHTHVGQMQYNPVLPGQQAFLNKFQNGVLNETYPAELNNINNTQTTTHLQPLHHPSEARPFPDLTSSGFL

AhR [2] = molecular target: T2, AhR (Mus musculus, UniProt P30561); experiment: In Vitro Assay 2: XRE-luciferase reporter assay, antagonism in mouse cell line (Hepa1c1c7); format: cell-based; conditions: 6 hours, read-out: Assay 2: AhR-Luc Mouse Antagonism (IC50)
T2 sequence (P30561 1-848): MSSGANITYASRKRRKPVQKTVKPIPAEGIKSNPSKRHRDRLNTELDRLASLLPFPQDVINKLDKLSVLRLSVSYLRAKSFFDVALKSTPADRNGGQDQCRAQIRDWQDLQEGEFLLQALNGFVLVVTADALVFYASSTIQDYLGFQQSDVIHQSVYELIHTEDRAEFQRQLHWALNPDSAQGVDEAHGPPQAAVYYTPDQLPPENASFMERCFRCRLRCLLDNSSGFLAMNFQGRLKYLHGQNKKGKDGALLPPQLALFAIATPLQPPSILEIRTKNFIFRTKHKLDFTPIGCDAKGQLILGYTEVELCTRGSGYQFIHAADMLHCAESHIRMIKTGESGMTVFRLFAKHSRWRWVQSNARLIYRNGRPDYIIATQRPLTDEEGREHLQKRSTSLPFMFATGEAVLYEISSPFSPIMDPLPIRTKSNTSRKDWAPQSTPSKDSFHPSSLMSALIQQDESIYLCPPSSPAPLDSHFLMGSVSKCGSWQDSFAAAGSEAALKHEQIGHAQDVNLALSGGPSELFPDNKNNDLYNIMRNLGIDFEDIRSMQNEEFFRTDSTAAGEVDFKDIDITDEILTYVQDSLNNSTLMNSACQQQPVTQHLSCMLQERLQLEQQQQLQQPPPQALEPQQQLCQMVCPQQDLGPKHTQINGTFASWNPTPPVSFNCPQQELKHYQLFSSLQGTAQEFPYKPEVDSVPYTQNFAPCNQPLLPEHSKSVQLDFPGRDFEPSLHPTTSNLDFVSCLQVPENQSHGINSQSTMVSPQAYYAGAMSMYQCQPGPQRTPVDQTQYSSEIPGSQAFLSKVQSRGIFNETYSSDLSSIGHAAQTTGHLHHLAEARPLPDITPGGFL
Description: In Vitro Assay 2: Antagonism in Mouse Cell Line
Hepa1c1c7 (murine liver cancer cell line) cells co-transfected with XRE-Luc and Nano-Luc plasmids were plated in complete medium and incubated overnight at 37° C. in a CO2 incubator. Following incubation, cells were treated with AhR activating ligands such as kynurenic acid, kynurenine (#) with or without test compounds for 6 hours.

AhR [3] = molecular target: T1, AhR; experiment: In Vitro Assay 3: XRE-luciferase reporter assay, agonism in human cell line (HepG2); format: cell-based; design: endogenous in cells; host or cells: HepG2; conditions: HepG2, tryptophan free medium, 6 hours, no agonist, read-out: Assay 3: AhR-Luc Human Agonism (EC50)
Description: In Vitro Assay 3: Agonism in Human Cell Line
HepG2 (human hepatoma cell line) cells co-transfected with XRE-Luc and Nano-Luc plasmids were plated in tryptophan free medium containing 1% of dialyzed fetal bovine serum and incubated overnight at 37° C. in a CO2 incubator. After 24 hours, cells were treated for 6 hours with test compounds or not. […] As a positive control, cells were incubated with TCDD.

AhR [4] = molecular target: T1, AhR; experiment: In Vitro Assay 1: XRE-luciferase reporter assay, antagonism in human cell line (HepG2); conditions: Assay 1: AhR-Luc Human Antagonism (IC50, nM), 6 hours
AhR [5] = molecular target: T1, AhR; experiment: In Vitro Assay 4: endogenous AhR activity assay (CYP1A1 and CYP1B1 mRNA, qRT-PCR, HepG2 cells)
Description: In Vitro Assay 4: Endogenous AhR Activity Assay
HepG2 cells were seeded in 12-well plate (3×10^5 cells/well). A day after seeding, the cells were treated with TCDD (10 nM) alone or with compounds (123 nM) for 4 hours. Total RNA was extracted using Trizol (Thermo Fisher Scientific). cDNA synthesis and quantitative RT-PCR (qRT-PCR) assays were performed using PrimeScript™ RT Master Mix (TAKARA) and TB Green™ Premix Ex Taq™ II (TAKARA) in accordance with manufacturer's instruction. For the measurement of endogenous AhR activity, relative mRNA levels of CYP1A1 and CYP1B1 were quantitated relative to β-actin mRNA by the comparative Ct (ΔΔCt) method. The percent inhibitions were calculated according to:

[6] = values marked #: AhR activating ligand kynurenine
[7] = values marked *: kynurenine 50 μM
[8] = HepG2, read-out: CYP1A1 (% Inhibition)
[9] = HepG2, read-out: CYP1B1 (% Inhibition)
[10] = unmarked values: AhR activating ligand kynurenic acid
[11] = unmarked values: kynurenine 200 μM

Question: With “4-(4-chlorophenyl)-2-(pyridin-3-yl)-6-(4-(pyrimidin-2-yl)piperazin-1-yl)pyrimidine [Example 90]” as the molecule, how does the pIC50 (AhR [1]) read?
Answer: 7.00 to 8.00

Question: Which results are given for `CC[C@H](CO)Nc1cc(-c2ccc(Cl)cc2)nc(-c2cccnc2)n1` [Example 1, (R)-2-((6-(4-chlorophenyl)-2-(pyridin-3-yl)pyrimidin-4-yl)amino)butan-1-ol]?
Answer: pIC50 (AhR [2]; [6]): 6.00 to 7.00; pEC50 (AhR [3]; number of the cell): 7.90; IC50 (AhR [4]; [7]): 10 to 100 nM; inhibition at 0.123 µM (AhR [5]; [8]): 60%; inhibition at 0.123 µM (AhR [5]; [9]): 92%

Question: `O=C1CN(c2cc(-c3ccc(Cl)cc3)nc(-c3cccnc3)n2)CCN1` [Example 94, 4-(6-(4-chlorophenyl)-2-(pyridin-3-yl)pyrimidin-4-yl)piperazin-2-one] was tested. Which pIC50 (AhR [2]; [6]) did it give?
Answer: 6.00 to 7.00

Question: And the pEC50 (AhR [3]; class in brackets of the cell)?
Answer: < 5.00

Question: And the pEC50 (AhR [3]; number of the cell)?
Answer: < 4.52

Question: And the IC50 (AhR [4]; [7])?
Answer: 10 to 100 nM

Question: What about the inhibition at 0.123 µM (AhR [5]; [8]) of the same molecule?
Answer: 63.1%

Question: And the inhibition at 0.123 µM (AhR [5]; [9])?
Answer: 92.1%

Question: How did the pIC50 (AhR [2]; [6]) turn out when `CN1CCN(c2cc(-c3ccc(Cl)cc3)nc(-c3cccnc3)n2)CC1` [Example 105, 4-(4-chlorophenyl)-6-(4-methylpiperazin-1-yl)-2-(pyridin-3-yl)pyrimidine] was run?
Answer: 6.00 to 7.00

Question: And the pEC50 (AhR [3]; class in brackets of the cell)?
Answer: < 5.00

Question: What about the pEC50 (AhR [3]; number of the cell) of the same molecule?
Answer: < 4.52

Question: And the IC50 (AhR [4]; [7])?
Answer: < 10 nM

Question: What about the inhibition at 0.123 µM (AhR [5]; [8]) of the same molecule?
Answer: 59.2%

Question: What about the inhibition at 0.123 µM (AhR [5]; [9]) of the same molecule?
Answer: 88.4%

Question: With `O[C@H]1CCN(c2cc(-c3ccc(Cl)cc3)nc(-c3cccnc3)n2)C1` [Example 137, (S)-1-(6-(4-chlorophenyl)-2-(pyridin-3-yl)pyrimidin-4-yl)pyrrolidin-3-ol] as the molecule, how does the pIC50 (AhR [2]; [10]) read?
Answer: > 8.00

Question: And the pEC50 (AhR [3]; class in brackets of the cell)?
Answer: < 5.00

Question: And the pEC50 (AhR [3]; number of the cell)?
Answer: < 4.52

Question: What about the IC50 (AhR [4]; [11]) of the same molecule?
Answer: < 10 nM

Question: What about the inhibition at 0.123 µM (AhR [5]; [8]) of the same molecule?
Answer: 91.6%

Question: What about the inhibition at 0.123 µM (AhR [5]; [9]) of the same molecule?
Answer: 97.7%

Question: `OCC1CCN(c2cc(-c3ccc(C(F)(F)F)cc3)nc(-c3cccnc3)n2)CC1` [Example 226, (1-(2-(pyridin-3-yl)-6-(4-(trifluoromethyl)phenyl)pyrimidin-4-yl)piperidin-4-yl)methanol] was tested. Which pIC50 (AhR [2]; [6]) did it give?
Answer: 7.00 to 8.00

Question: And the pEC50 (AhR [3]; class in brackets of the cell)?
Answer: < 5.00

Question: And the pEC50 (AhR [3]; number of the cell)?
Answer: < 4.52

Question: What about the IC50 (AhR [4]; [11]) of the same molecule?
Answer: < 10 nM

Question: What about the inhibition at 0.123 µM (AhR [5]; [8]) of the same molecule?
Answer: 108%

Question: And the inhibition at 0.123 µM (AhR [5]; [9])?
Answer: 101%

Question: Which results are given for `O[C@@H]1CN(c2cc(-c3ccc(Cl)cc3)nc(-c3cccnc3)n2)C[C@@H]1F` [Example 235, (3R,4S)-1-(6-(4-chlorophenyl)-2-(pyridin-3-yl)pyrimidin-4-yl)-4-fluoropyrrolidin-3-ol]?
Answer: pIC50 (AhR [2]; [6]): 7.00 to 8.00; pEC50 (AhR [3]; number of the cell): 5.45; IC50 (AhR [4]; [7]): < 10 nM; inhibition at 0.123 µM (AhR [5]; [8]): 106%; inhibition at 0.123 µM (AhR [5]; [9]): 101%

Question: With `O=S(=O)(CCO)N1CCN(c2cc(-c3ccc(Cl)cc3)nc(-c3cccnc3)n2)CC1` [Example 239, 2-((4-(6-(4-chlorophenyl)-2-(pyridin-3-yl)pyrimidin-4-yl)piperazin-1-yl)sulfonyl)ethan-1-ol] as the molecule, how does the pIC50 (AhR [2]; [10]) read?
Answer: > 8.00

Question: What about the pEC50 (AhR [3]; class in brackets of the cell) of the same molecule?
Answer: < 5.00

Question: And the pEC50 (AhR [3]; number of the cell)?
Answer: < 4.52

Question: What about the IC50 (AhR [4]; [11]) of the same molecule?
Answer: < 10 nM

Question: What about the inhibition at 0.123 µM (AhR [5]; [8]) of the same molecule?
Answer: 108%

Question: What about the inhibition at 0.123 µM (AhR [5]; [9]) of the same molecule?
Answer: 101%

Question: With `OCC1CCN(c2cc(-c3ccc(N4CCOCC4)cc3)nc(-c3cccnc3)n2)CC1` [Example 268, (1-(6-(4-morpholinophenyl)-2-(pyridin-3-yl)pyrimidin-4-yl)piperidin-4-yl)methanol] as the molecule, how does the pIC50 (AhR [2]; [6]) read?
Answer: > 8.00

Question: And the pEC50 (AhR [3]; class in brackets of the cell)?
Answer: < 5.00

Question: And the pEC50 (AhR [3]; number of the cell)?
Answer: < 4.52

Question: What about the IC50 (AhR [4]; [11]) of the same molecule?
Answer: < 10 nM

Question: What about the inhibition at 0.123 µM (AhR [5]; [8]) of the same molecule?
Answer: 102%

Question: What does the source list for `O[C@H]1CCN(c2cc(-c3ccc(Cl)cc3)nc(-c3cncc(F)c3)n2)C1` [Example 323, (S)-1-(6-(4-chlorophenyl)-2-(5-fluoropyridin-3-yl)pyrimidin-4-yl)pyrrolidin-3-ol]?
Answer: pIC50 (AhR [2]; [6]): 7.00 to 8.00; pEC50 (AhR [3]; class in brackets of the cell): < 5.00; pEC50 (AhR [3]; number of the cell): < 4.52; IC50 (AhR [4]; [11]): < 10 nM; inhibition at 0.123 µM (AhR [5]; [8]): 108%; inhibition at 0.123 µM (AhR [5]; [9]): 99.8%

Question: With `O[C@H]1CCN(c2cc(-c3ccc(C(F)(F)F)cc3)nc(-c3cncc(F)c3)n2)C1` [Example 327, (S)-1-(2-(5-fluoropyridin-3-yl)-6-(4-(trifluoromethyl)phenyl)pyrimidin-4-yl)pyrrolidin-3-ol] as the molecule, how does the pIC50 (AhR [2]; [6]) read?
Answer: 7.00 to 8.00

Question: What about the pEC50 (AhR [3]; number of the cell) of the same molecule?
Answer: 5.76

Question: And the IC50 (AhR [4]; [11])?
Answer: < 10 nM

Question: And the inhibition at 0.123 µM (AhR [5]; [8])?
Answer: 106%

Question: And the inhibition at 0.123 µM (AhR [5]; [9])?
Answer: 101%

Question: With `O=C(CCO)N1CCN(c2cc(-c3ccc(Cl)cc3)nc(-c3cccnc3)n2)CC1` [Example 352, 1-(4-(6-(4-chlorophenyl)-2-(pyridin-3-yl)pyrimidin-4-yl)piperazin-1-yl)-3-hydroxypropan-1-one] as the molecule, how does the pIC50 (AhR [2]; [6]) read?
Answer: 7.00 to 8.00

Question: What about the pEC50 (AhR [3]; class in brackets of the cell) of the same molecule?
Answer: < 5.00

Question: And the pEC50 (AhR [3]; number of the cell)?
Answer: < 4.52

Question: And the IC50 (AhR [4]; [11])?
Answer: < 10 nM

Question: What about the inhibition at 0.123 µM (AhR [5]; [8]) of the same molecule?
Answer: 87.2%
